Drawing on patent US20260055143A1, “HIGH AFFINITY VARIANTS OF SH2 DOMAINS” (Axoiya Inc., priority 2023, published 2026), this text covers change in affinity and change in binding for one substance.

This assay deals with PPPT{pTyr}TEVDP. Put plainly: Competitive ELISA, Ptn11_C variants. Format: binding. As to the method: Competitive and non-competitive phage ELISAs were performed as previously described with minor modifications to the protocol. Peptide sequences used for these analyses can be found in Table 4.
Streptavidin (50 ng/well in TBS (50 mM Tris-HCl pH 8.0, 150 mM NaCl) was coated onto MAXISORP plates (Thermo Scientific). Phage binding was detected using HRP conjugated anti-M13 secondary antibody (1/2000 dilution, GE Healthcare) in TBS buffer containing 0.05% Tween-20 (TBT buffer). Phage binding was detected using the 3,3′,5,5′-tetramethylbenzidine (TMB) (Thermo Fisher Scientific) chromogenic substrate. Plates were read using a PowerWave XS microplate reader (BioTek).
Competitive phage-ELISAs were used to determine binding affinity of SH2 superbinders for their cognate target. ELISAs were performed as previously described, biotinylated and phosphorylated peptides were immobilized on plates at the concentration of 0.2 μM, and available binding sites on streptavidin were blocked by adding 25 μl/well of 50 μM D-biotin in TBS. […] Data were plotted using Prism 6 software (GraphPad Software Inc) and affinity of SH2 domains was inferred from determination of the half maximal inhibition concentration (IC50).
Peptides listed in Table 5 were used to assay for binding affinity of each corresponding SH2 domain.
For orientation: An ELISA detects its analyte on a solid surface through an enzyme-linked reagent.

Turning to “Ptn11_C^wt: wild-type PTN11_C SH2 domain, SEQ ID 57”, the change in affinity entry (with either the sSrc or sFes graft) was “no improvement in affinity”. The change in binding entry (αA-2-Arg mutation alone) is given as “not sufficient to enhance the binding”.
